# In publication PMC9621234, “Ligand-based discovery of coronavirus main protease inhibitors using MACAW molecular embeddings” (Journal of Enzyme Inhibition and Medicinal Chemistry, 2022):
# Like-named read-outs stand apart in the source and are kept apart here.
# Legend:
# SARS-CoV-2 M^pro = molecular target: T1, SARS-CoV-2 M^pro (Severe acute respiratory syndrome coronavirus 2, UniProt P0DTD1); experiment: biochemical; conditions: for change of inhibition results upon addition of detergent: 0.1% Triton X-100, aggregation control; for inhibition curve, in words: 0.01-20 μM
# T1 construct: in vitro FRET-based assay using recombinant M^pro; purchased Beyotime P0315M
# [1] = tested on: Human coronavirus hCoV-229; assay type: cell-based
# MRC-5 cells = experiment: Cytotoxicity, MTT test; conditions: 72 h, 100 to 3.12 μg/mL
# HCoV 229E = experiment: Viral titres (TCID50) in MRC-5 cells; conditions: MRC-5, 72 h, different concentrations
# [2] = Figure 2(l), Trial 1, read-out: IC50
# [3] = Figure 2(l), Trial 2, read-out: IC50
# [4] = Figure 2(l), With Triton-X100, read-out: IC50
# [5] = Figure 2 panels a-k, dose-response curve, mean ± SEM, n = 3, read-out: IC50
# [6] = Figure 4, With Triton-X100 (0.1%), unit inferred, read-out: IC50
# [7] = Figure 4, Without Triton-X100, unit inferred, read-out: IC50
# [8] = IC50, Figure 2 panels a-k, dose-response curve, mean ± SEM, n = 3
smiles,measurement,setting,value
c1ccc2sc(SSc3nc4ccccc4s3)nc2c1 [Compound 1],change of inhibition results upon addition of detergent,SARS-CoV-2 M^pro,did not change significantly
same,IC50,SARS-CoV-2 M^pro; [2],714 nM
same,IC50,SARS-CoV-2 M^pro; [3],768 nM
same,IC50,SARS-CoV-2 M^pro; [4],622 nM
same,IC50,SARS-CoV-2 M^pro; [5],714 ± 182 nM
same,IC50,SARS-CoV-2 M^pro; [6],625 ± 102 nM
same,IC50,SARS-CoV-2 M^pro; [7],786 ± 151 nM
same,IC50,SARS-CoV-2 M^pro; read-out: IC50,710 nM
same,effect on cytopathogenic effect (CPE) of the virus,[1],some reduction in CPE
same,effect on cytopathogenic effect (CPE) of the virus,"[1]; high multiplicity of infection (high viral load), MRC-5, 72 h",no inhibitory effect
same,cellular toxicity (cell viability),MRC-5 cells,minimal toxicity
Cc1ccc(-c2oc3ccccc3c(=O)c2O)cc1 [Compound 2],"inhibition curve, in words",SARS-CoV-2 M^pro,atypical inhibition results
Cc1ccc(-n2c(/C=C/c3ccc([N+](=O)[O-])cc3)nc3ccccc3c2=O)cc1 [Compound 3],IC50,SARS-CoV-2 M^pro; [5],38300 ± 18300 nM
Nc1nnc(Sc2ccc([N+](=O)[O-])cn2)s1 [Compound 4],IC50,SARS-CoV-2 M^pro; [8],6220 ± 1790 nM
O=C1C2C3C=CC(C3)C2C(=O)C2C3C=CC(C3)C12 (centres unmarked) [Compound 5],IC50,SARS-CoV-2 M^pro; [8],9790 ± 1450 nM
c1ccc(Sc2ncnc3c2oc2ccccc23)cc1 [Compound 6],IC50,SARS-CoV-2 M^pro; [8],4980 ± 1280 nM
"O=c1sc2ccccc2n1Cc1ccccc1 [Compound 7, 3-benzyl-1,3-benzothiazol-2-one]","inhibition curve, in words",SARS-CoV-2 M^pro,atypical inhibition results
same,change of inhibition results upon addition of detergent,SARS-CoV-2 M^pro,did not change significantly
same,IC50,"SARS-CoV-2 M^pro; IC50, Figure 2(l), Trial 1",174 nM
same,IC50,"SARS-CoV-2 M^pro; IC50, Figure 2(l), Trial 2",179 nM
same,IC50,"SARS-CoV-2 M^pro; IC50, Figure 2(l), With Triton-X100",241 nM
same,"potency, in words","SARS-CoV-2 M^pro; at low concentrations, fluorescent signal increased at high compound concentrations",highly potent
same,effect on cytopathogenic effect (CPE) of the virus,"[1]; across all the viral doses tested, MRC-5, 72 h",very significant reduction in CPE
same,cellular toxicity (cell viability),MRC-5 cells,minimal toxicity
same,effect on viral titres (TCID50),HCoV 229E,substantial reduction in the viral load
"[O-][n+]1ccccc1SSc1cccc[n+]1[O-] [Compound 8, dipyrithione]",change of inhibition results upon addition of detergent,SARS-CoV-2 M^pro,did not change significantly
same,IC50,SARS-CoV-2 M^pro; [2],172 nM
same,IC50,SARS-CoV-2 M^pro; [3],171 nM
same,IC50,SARS-CoV-2 M^pro; [4],266 nM
same,IC50,SARS-CoV-2 M^pro; [5],172 ± 25 nM
same,IC50,SARS-CoV-2 M^pro; [6],285 ± 38 nM
same,IC50,SARS-CoV-2 M^pro; [7],173 ± 23 nM
same,IC50,SARS-CoV-2 M^pro; read-out: IC50,180 nM
same,cellular toxicity (cell viability),MRC-5 cells,limited toxicity
"Nc1nnc(Sc2ncc([N+](=O)[O-])s2)s1 [Compound 9, halicin]",change of inhibition results upon addition of detergent,SARS-CoV-2 M^pro,did not change significantly
same,IC50,SARS-CoV-2 M^pro; IC50,420 nM
same,IC50,"SARS-CoV-2 M^pro; IC50, Figure 2(l), Trial 1",420 nM
same,IC50,"SARS-CoV-2 M^pro; IC50, Figure 2(l), Trial 2",419 nM
same,IC50,SARS-CoV-2 M^pro; [8],420 ± 49 nM
same,IC50,"SARS-CoV-2 M^pro; IC50, Figure 4, With Triton-X100 (0.1%), unit inferred",461 ± 81 nM
same,cellular toxicity (cell viability),MRC-5 cells,toxic
